# Entries after “also recorded” stand apart in the source; their conditions may differ. Like-named read-outs stand apart in the source and are kept apart here.
# What was measured:
# K-562 = assay: SRB colorimetric cell growth inhibition assay, K-562; assay type: cell-based; conditions: Homo sapiens; for GI50: GI=growth inhibition, read-out: GI50 K-562; for IC (TGI): read-out: TGI K-562
# Method in brief: (§1)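 After uninterrupted treatment, cultures are fixed and stained with sulforhodamine B, and absorbance reflects cell growth and viability. Each value represents the average of triplicate wells with SD.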
# A-549 = assay: SRB colorimetric cell growth inhibition assay, A-549; assay type: cell-based; conditions: Homo sapiens; for GI50: GI=growth inhibition, read-out: GI50 A-549; for IC (TGI): read-out: TGI A-549
# Method in brief: as §1
# SK-MEL-28 = assay: SRB colorimetric cell growth inhibition assay, SK-MEL-28; assay type: cell-based; conditions: Homo sapiens; for GI50: GI=growth inhibition, read-out: GI50 MEL-28; for CC50: cell killing (cytotoxic effect); for IC (TGI): total growth inhibition (cytostatic effect), read-out: TGI MEL-28
# Method in brief: as §1
# HT-29 = assay: SRB colorimetric cell growth inhibition assay, HT-29; assay type: cell-based; conditions: Homo sapiens; for GI50: GI=growth inhibition, read-out: GI50 HT-29; for IC (TGI): read-out: TGI HT-29
# Method in brief: as §1
# LoVo = assay: SRB colorimetric cell growth inhibition assay, LoVo; assay type: cell-based; conditions: Homo sapiens, LoVo; for GI50: GI=growth inhibition, read-out: GI50 LOVO; for IC (TGI): read-out: TGI LOVO
# Method in brief: as §1
# LoVo-Dox = assay: SRB colorimetric cell growth inhibition assay, LoVo-Dox (MDR); assay type: cell-based; conditions: Homo sapiens; for GI50: GI=growth inhibition, read-out: GI50 LOVO-DOX; for IC (TGI): read-out: TGI LOVO-DOX
# Method in brief: as §1
# DU-145 = assay: SRB colorimetric cell growth inhibition assay, DU-145; assay type: cell-based; conditions: Homo sapiens; for GI50: GI=growth inhibition, read-out: GI50 DU-145; for CC50: cell killing (cytotoxic effect); for IC (TGI): total growth inhibition (cytostatic effect), read-out: TGI DU-145
# Method in brief: as §1
# LNCaP = assay: SRB colorimetric cell growth inhibition assay, LNCaP; assay type: cell-based; conditions: Homo sapiens, LNCaP; for GI50: GI=growth inhibition, read-out: GI50 LN-caP; for CC50: cell killing (cytotoxic effect); for IC (TGI): total growth inhibition (cytostatic effect), read-out: TGI LN-caP
# Method in brief: as §1
# SK-BR-3 = assay: SRB colorimetric cell growth inhibition assay, SK-BR-3; assay type: cell-based; conditions: Homo sapiens; for GI50: GI=growth inhibition, read-out: GI50 SK-BR-3; for CC50: cell killing (cytotoxic effect); for IC (TGI): total growth inhibition (cytostatic effect), read-out: TGI SK-BR-3
# Method in brief: as §1
# IGROV = assay: SRB colorimetric cell growth inhibition assay, IGROV; assay type: cell-based
# Method in brief: as §1
# IGROV-ET = assay: SRB colorimetric cell growth inhibition assay, IGROV-ET (ET-743 resistant); assay type: cell-based; conditions: Homo sapiens; for GI50: GI=growth inhibition, read-out: GI50 IGROV-ET; for CC50: cell killing (cytotoxic effect); for IC (TGI): total growth inhibition (cytostatic effect), read-out: TGI IGROV-ET
# Method in brief: as §1
# PANC-1 = assay: SRB colorimetric cell growth inhibition assay, PANC-1; assay type: cell-based; conditions: Homo sapiens; for GI50: GI=growth inhibition, read-out: GI50 PANC-1; for IC (TGI): read-out: TGI PANC-1
# Method in brief: as §1
# human topoisomerase I = target: T1, human topoisomerase I (Homo sapiens, UniProt P11387); assay: Topoisomerase I DNA relaxation assay (supercoiled plasmid DNA); assay type: biochemical; conditions: supercoiled plasmid DNA, each compound tested at 1 μM, agarose gel with ethidium bromide
# T1 sequence (P11387 1-765): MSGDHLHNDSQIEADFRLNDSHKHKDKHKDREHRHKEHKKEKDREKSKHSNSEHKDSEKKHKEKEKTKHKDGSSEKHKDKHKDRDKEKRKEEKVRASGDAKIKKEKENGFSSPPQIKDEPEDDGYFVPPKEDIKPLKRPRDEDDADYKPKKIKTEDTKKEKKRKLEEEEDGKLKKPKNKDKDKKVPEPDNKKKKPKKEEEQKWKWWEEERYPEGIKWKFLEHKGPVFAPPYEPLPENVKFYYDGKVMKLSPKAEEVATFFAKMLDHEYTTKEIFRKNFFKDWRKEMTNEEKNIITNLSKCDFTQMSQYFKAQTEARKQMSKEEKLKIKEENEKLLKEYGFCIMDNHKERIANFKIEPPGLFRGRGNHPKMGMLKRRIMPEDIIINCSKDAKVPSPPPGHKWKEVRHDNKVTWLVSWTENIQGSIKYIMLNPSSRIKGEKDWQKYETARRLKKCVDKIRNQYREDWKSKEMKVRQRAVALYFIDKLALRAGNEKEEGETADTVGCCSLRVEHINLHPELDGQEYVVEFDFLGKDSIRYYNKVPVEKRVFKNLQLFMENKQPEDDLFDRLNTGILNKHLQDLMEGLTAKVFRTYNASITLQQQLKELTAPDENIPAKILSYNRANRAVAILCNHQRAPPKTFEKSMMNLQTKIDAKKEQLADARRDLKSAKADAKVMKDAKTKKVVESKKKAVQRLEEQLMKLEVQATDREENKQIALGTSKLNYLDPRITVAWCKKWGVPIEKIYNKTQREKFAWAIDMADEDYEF
# Method in brief: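 Supercoiled plasmid DNA was relaxed by human topoisomerase I with or without test compound at 1 μM. Products were resolved by agarose gel electrophoresis with ethidium bromide staining.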
# [1] = Homo sapiens, IGROV; GI=growth inhibition; read-out: GI50 IGROV
structure (smiles),measurement,setting,value
COc1cc(-c2c3c4cc(OC)c(OC(=O)[C@@H](N)C(C)C)cc4oc(=O)c3n3ccc4cc(OC(=O)[C@@H](N)C(C)C)c(OC)cc4c23)ccc1OC(=O)[C@@H](N)C(C)C [Compound 36],GI50,"K-562; K562, K-562",9.48 nM
same,CC50,"K-562; K562, K-562, LC=cell killing (cytotoxic effect), read-out: LC50 K-562",5700 nM
same,IC (TGI),"K-562; K562, K-562, TGI=total growth inhibition (cytostatic effect)",188 nM
same,GI50,"A-549; A549, A-549",32.8 nM
same,CC50,"A-549; A549, A-549, LC=cell killing (cytotoxic effect), read-out: LC50 A-549",1690 nM
same,IC (TGI),"A-549; A549, A-549, TGI=total growth inhibition (cytostatic effect)",154 nM
same,GI50,"SK-MEL-28; SK-MEL-28, MEL-28",31.9 nM
same,CC50,"SK-MEL-28; SK-MEL-28, MEL-28, read-out: LC50 MEL-28",2700 nM
same,IC (TGI),"SK-MEL-28; SK-MEL-28, MEL-28",181 nM
same,GI50,"HT-29; HT-29, HT-29",1510 nM
same,CC50,"HT-29; HT-29, HT-29, LC=cell killing (cytotoxic effect), read-out: LC50 HT-29",8780 nM
same,IC (TGI),"HT-29; HT-29, HT-29, TGI=total growth inhibition (cytostatic effect)",4080 nM
same,GI50,LoVo,158 nM
same,CC50,"LoVo; LC=cell killing (cytotoxic effect), read-out: LC50 LOVO",652 nM
same,IC (TGI),LoVo; TGI=total growth inhibition (cytostatic effect),321 nM
same,GI50,LoVo-Dox; LOVO-DOX,145 nM
same,CC50,"LoVo-Dox; LOVO-DOX, LC=cell killing (cytotoxic effect), read-out: LC50 LOVO-DOX",8780 nM
same,IC (TGI),"LoVo-Dox; LOVO-DOX, TGI=total growth inhibition (cytostatic effect)",525 nM
same,GI50,"DU-145; DU-145, DU-145",10.8 nM
same,CC50,"DU-145; DU-145, DU-145, read-out: LC50 DU-145",668 nM
same,IC (TGI),"DU-145; DU-145, DU-145",38.3 nM
same,GI50,LNCaP; LN-caP,42.8 nM
same,CC50,"LNCaP; LN-caP, read-out: LC50 LN-caP",424 nM
same,IC (TGI),LNCaP; LN-caP,156 nM
same,GI50,"SK-BR-3; SK-BR-3, SK-BR-3",39.6 nM
same,CC50,"SK-BR-3; SK-BR-3, SK-BR-3, read-out: LC50 SK-BR-3",2940 nM
same,IC (TGI),"SK-BR-3; SK-BR-3, SK-BR-3",221 nM
same,GI50,IGROV; [1],46.9 nM
same,CC50,"IGROV; Homo sapiens, IGROV; cell killing (cytotoxic effect); read-out: LC50 IGROV",7950 nM
same,IC (TGI),"IGROV; Homo sapiens, IGROV; total growth inhibition (cytostatic effect); read-out: TGI IGROV",409 nM
same,GI50,IGROV-ET; IGROV-ET,76.5 nM
same,CC50,"IGROV-ET; IGROV-ET, read-out: LC50 IGROV-ET",8780 nM
same,IC (TGI),IGROV-ET; IGROV-ET,540 nM
same,GI50,"PANC-1; PANC-1, PANC-1",169 nM
same,CC50,"PANC-1; PANC-1, PANC-1, LC=cell killing (cytotoxic effect), read-out: LC50 PANC-1",8780 nM
same,IC (TGI),"PANC-1; PANC-1, PANC-1, TGI=total growth inhibition (cytostatic effect)",1130 nM
same,stimulation of DNA cleavage by topoisomerase I / inhibition of topoisomerase I (nicked DNA band) in DNA relaxation assay,human topoisomerase I,marked inhibition of topoisomerase I; also recorded: stimulated DNA cleavage by the enzyme
"COc1cc(-c2c3c4cc(OC)c(O)cc4oc(=O)c3n3ccc4cc(O)c(OC)cc4c23)ccc1O [Compound 3, lamellarin D, reference compound]",GI50,"K-562; K562, K-562",86.9 nM
same,IC (TGI),"K-562; K562, K-562, total growth inhibition (cytostatic effect)",791 nM
same,CC50,"K-562; K562, read-out: LC50 K-562, K-562, cell killing (cytotoxic effect)",8150 nM
same,GI50,"A-549; A549, A-549",20.4 nM
same,IC (TGI),"A-549; A549, A-549, total growth inhibition (cytostatic effect)",1140 nM
same,CC50,"A-549; A549, read-out: LC50 A-549, A-549, cell killing (cytotoxic effect)",15500 nM
same,GI50,"SK-MEL-28; SK-MEL-28, MEL-28",88.1 nM
same,IC (TGI),"SK-MEL-28; SK-MEL-28, MEL-28",1770 nM
same,CC50,"SK-MEL-28; SK-MEL-28, read-out: LC50 MEL-28, MEL-28",11300 nM
same,GI50,"HT-29; HT-29, HT-29",5330 nM
same,IC (TGI),"HT-29; HT-29, HT-29, total growth inhibition (cytostatic effect)",19000 nM
same,CC50,"HT-29; HT-29, read-out: LC50 HT-29, HT-29, cell killing (cytotoxic effect)",20000 nM
same,CC50,"LoVo; read-out: LC50 LOVO, LOVO, cell killing (cytotoxic effect)",2000 nM
same,GI50,LoVo,398 nM
same,IC (TGI),LoVo; total growth inhibition (cytostatic effect),965 nM
same,GI50,LoVo-Dox; LOVO-DOX,420 nM
same,IC (TGI),"LoVo-Dox; LOVO-DOX, total growth inhibition (cytostatic effect)",1670 nM
same,CC50,"LoVo-Dox; read-out: LC50 LOVO-DOX, LOVO-DOX, cell killing (cytotoxic effect)",20000 nM
same,GI50,"DU-145; DU-145, DU-145",19 nM
same,IC (TGI),"DU-145; DU-145, DU-145",79.7 nM
same,CC50,"DU-145; DU-145, read-out: LC50 DU-145, DU-145",20000 nM
same,GI50,LNCaP; LN-caP,123 nM
same,IC (TGI),LNCaP; LN-caP,398 nM
same,CC50,"LNCaP; read-out: LC50 LN-caP, LN-caP",1060 nM
same,GI50,"SK-BR-3; SK-BR-3, SK-BR-3",106 nM
same,IC (TGI),"SK-BR-3; SK-BR-3, SK-BR-3",767 nM
same,CC50,"SK-BR-3; SK-BR-3, read-out: LC50 SK-BR-3, SK-BR-3",7690 nM
same,CC50,"IGROV; Homo sapiens, IGROV, read-out: LC50 IGROV, IGROV; cell killing (cytotoxic effect)",20000 nM
same,GI50,IGROV; [1],236 nM
same,IC (TGI),IGROV; Homo sapiens; IGROV; total growth inhibition (cytostatic effect); read-out: TGI IGROV,1060 nM
same,GI50,IGROV-ET; IGROV-ET,214 nM
same,IC (TGI),IGROV-ET; IGROV-ET,1160 nM
same,CC50,"IGROV-ET; read-out: LC50 IGROV-ET, IGROV-ET",20000 nM
same,GI50,"PANC-1; PANC-1, PANC-1",248 nM
same,IC (TGI),"PANC-1; PANC-1, PANC-1, total growth inhibition (cytostatic effect)",2200 nM
same,CC50,"PANC-1; PANC-1, read-out: LC50 PANC-1, PANC-1, cell killing (cytotoxic effect)",20000 nM
same,stimulation of DNA cleavage by topoisomerase I / inhibition of topoisomerase I (nicked DNA band) in DNA relaxation assay,human topoisomerase I,significantly amplified

# Source: patent US7396837B2, “Antitumoral analogs of lamellarins” (Pharma Mar, S.A.U., priority 2002, dated 2008)
